Data from US11964988B2, “Fused heterocyclic compounds as RET kinase inhibitors” (ARRAY BIOPHARMA INC., priority 2018, dated 2024).
Changes are numbered by the printed parent chain.

How the values were obtained:
[1] = molecular target: RET kinase V804M (Homo sapiens, UniProt P07949, V804M); assay: RET Enzyme Assay (CisBio HTRF KinEASE-TK), V804M; type: biochemical; conditions: read-out: RET V804M Enz FRET IC50
Method: (§2) The potency of compounds inhibiting several different RET kinase forms (Wild Type, V804M, G810R, & G810S) were determined using CisBio's HTRF® KinEASE™-TK assay technology. […] After a 1 hour incubation at 22° C., the extent of reaction was determined using a PerkinElmer EnVision multimode plate reader via HTRF dual wavelength detection, and the percent of control (POC) was calculated using a ratiometric emission factor. One hundred POC was determined using DMSO only samples (no compound present), and 0 POC was determined using pre-quenched control reactions.

[2] = molecular target: T1, HEK-293 cells expressing a Kif5b-RET fusion protein (Homo sapiens, UniProt P07949); assay: RET Cell Assay (phospho-RET Tyr1062); type: cell-based; conditions: HEK-293 Kif5b-RET, 1 hour incubation, phospho-RET normalized to GAPDH; read-out: KIF5B-RET pTYR1062 Cell IC50
T1 construct: KIF5B (N-terminal portion incl. coiled-coil); expressed in transfected cells; host or cells: HEK-293; the other entry of the earlier key: KIF5B (P33176, Kinesin-1 heavy chain)
T1 sequence (P07949 713-1063 limits assumed): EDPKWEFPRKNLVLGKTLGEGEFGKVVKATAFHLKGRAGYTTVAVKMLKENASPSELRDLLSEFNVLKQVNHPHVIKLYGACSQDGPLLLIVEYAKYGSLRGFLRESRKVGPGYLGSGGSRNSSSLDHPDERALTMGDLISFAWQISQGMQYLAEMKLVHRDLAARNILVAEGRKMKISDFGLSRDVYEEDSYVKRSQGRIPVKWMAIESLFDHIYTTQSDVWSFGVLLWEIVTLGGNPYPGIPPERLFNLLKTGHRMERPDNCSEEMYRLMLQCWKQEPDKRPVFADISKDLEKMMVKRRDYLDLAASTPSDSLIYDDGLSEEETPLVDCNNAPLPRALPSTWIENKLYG
Method: (§1) The cellular potency of compounds inhibiting RET kinase were determined in HEK-293 cells expressing a Kif5b-RET fusion protein. Briefly, HEK-293 cells expressing a Kif5b-RET fusion protein were plated at 50K cells/well in 96 well poly-D-Lysine coated plates the day prior to the assay. The cells were incubated for 1 hour with test compound in DMEM (Dulbecco's Modified Eagle Medium) at a final DMSO concentration of 0.5%. […] After 1 hour the media was removed, the cells were fixed with 3.8% formaldehyde for 20 min, washed with PBS, and permeabilized for 10 min with 100% methanol. The plates were then washed with PBS-0.05% Tween20, and blocked with LI-COR Blocking solution (LI-COR Catalog No. 927-40000) for 1 hour. Plates were washed with PBS-0.05% Tween20, then incubated with anti-phospho-RET (Tyr1062) (Santa Cruz Catalog No. sc-20252-R) antibody and anti-GAPDH (Millipore Catalog No. MAB374) antibody for 2 hours. The plates were washed with PBS-0.05% Tween20, and incubated with anti-rabbit 680 (Molecular Probes Catalog No. A21109) and anti-mouse 800 (LI-COR Catalog No. 926-32210) secondary antibodies for 1 hour. All antibodies were diluted in LI-COR Block containing 0.05% Tween. The plates were washed with PBS-0.05% Tween20,100 μL PBS is added to each well, and the plates were read on a LI-COR Aerius fluorescent plate reader. The phospho-RET signal was normalized to the GAPDH signal. […] The POC values were fit to a 4 parameter logistic curve. The IC50 value is the point where the curve crosses 50 POC.

[3] = molecular target: T2, HEK-293 cells expressing a G810R mutant RET Kif5b-RET fusion protein (Homo sapiens, UniProt P07949, G810R); assay: RET G810R Mutant Cell Assay (phospho-RET Tyr1062); type: cell-based; conditions: HEK-293 Kif5b-RET G810R, 1 hour incubation, phospho-RET normalized to GAPDH
T2 construct: KIF5B (N-terminal portion incl. coiled-coil); expressed in transfected cells; host or cells: HEK-293; the other entry of the earlier key: KIF5B (P33176, Kinesin-1 heavy chain)
T2 sequence (P07949 713-1063 G810R limits assumed): T1 sequence (P07949 713-1063 limits assumed) with G98R
Method: as §1, with “expressing a G810R or G810S mutant RET Kif5b-RET fusion” for “expressing a Kif5b-RET fusion”, “μL PBS was added to” for “μL PBS is added to”, “POC values are fit to” for “POC values were fit to”

[4] = molecular target: RET kinase Wild Type (Homo sapiens, UniProt P07949); assay: biochemical;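 further: HTRF kinase activity assay on RET enzyme, 1 h reaction at 22 °C, dual-wavelength readout as percent of control, DMSO-only wells as 100%, pre-quenched reactions as 0%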
RET kinase Wild Type, sequence (P07949 29-1114): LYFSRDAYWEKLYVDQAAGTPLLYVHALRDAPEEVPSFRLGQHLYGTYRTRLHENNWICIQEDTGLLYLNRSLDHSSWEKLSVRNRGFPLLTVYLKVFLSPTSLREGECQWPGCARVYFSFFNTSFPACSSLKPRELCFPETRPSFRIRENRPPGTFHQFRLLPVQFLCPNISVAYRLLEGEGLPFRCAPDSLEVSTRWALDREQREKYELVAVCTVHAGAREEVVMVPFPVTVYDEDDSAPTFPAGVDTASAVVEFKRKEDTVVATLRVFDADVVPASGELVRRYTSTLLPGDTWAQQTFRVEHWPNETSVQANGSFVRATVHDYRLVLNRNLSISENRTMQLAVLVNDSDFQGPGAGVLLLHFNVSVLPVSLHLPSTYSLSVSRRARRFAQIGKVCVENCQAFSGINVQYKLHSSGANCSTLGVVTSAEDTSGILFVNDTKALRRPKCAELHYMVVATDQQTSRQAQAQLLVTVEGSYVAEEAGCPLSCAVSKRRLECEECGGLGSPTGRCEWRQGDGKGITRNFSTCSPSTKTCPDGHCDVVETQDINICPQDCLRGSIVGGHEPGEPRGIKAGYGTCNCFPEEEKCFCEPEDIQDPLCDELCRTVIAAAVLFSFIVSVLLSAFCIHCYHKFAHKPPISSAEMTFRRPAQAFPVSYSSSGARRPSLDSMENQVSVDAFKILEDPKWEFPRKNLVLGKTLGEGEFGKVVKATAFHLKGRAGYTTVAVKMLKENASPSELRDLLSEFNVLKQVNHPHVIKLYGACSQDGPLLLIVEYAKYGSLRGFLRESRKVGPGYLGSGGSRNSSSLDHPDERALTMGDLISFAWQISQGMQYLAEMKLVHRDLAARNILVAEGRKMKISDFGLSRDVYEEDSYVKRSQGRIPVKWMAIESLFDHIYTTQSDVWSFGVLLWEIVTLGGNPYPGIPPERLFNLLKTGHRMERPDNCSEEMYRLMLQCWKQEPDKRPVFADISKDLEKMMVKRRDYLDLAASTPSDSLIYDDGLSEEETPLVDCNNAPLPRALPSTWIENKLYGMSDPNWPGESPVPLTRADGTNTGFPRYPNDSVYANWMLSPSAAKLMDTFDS
Method: as §2

[5] = molecular target: G810R mutant RET kinase (Homo sapiens, UniProt P07949, G810R); assay: biochemical;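 further: HTRF KinEASE-TK enzymatic assay with 1 nM recombinant RET G810R, 1 h at 22 °C, dual-wavelength ratiometric readout, 100% control without compound, 0% from pre-quenched reactions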
G810R mutant RET kinase, sequence (P07949 29-1114 G810R): as the sequence (P07949 29-1114) above, with G782R counted along it

[6] = molecular target: G810S mutant RET kinase (Homo sapiens, UniProt P07949, G810S); assay: biochemical;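 further: HTRF KinEASE-TK kinase assay with recombinant enzyme, 1 h at 22 °C, dual-wavelength ratiometric read-out, percent of control (DMSO-only = 100, pre-quenched reaction = 0)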
G810S mutant RET kinase, sequence (P07949 29-1114 G810S): as the sequence (P07949 29-1114) above, with G782S counted along it

RET kinase V804M, sequence (P07949 29-1114 V804M): as the sequence (P07949 29-1114) above, with V776M counted along it

Compound	IC50 [1] [nM]	IC50 [2] [nM]	IC50 [3] [nM]	IC50 [4] [nM]	IC50 [5] [nM]	IC50 [6] [nM]
COC1CCc2c(c3c(N)ncnc3n2C(C)C)-c2noc(C3CC3)c21 (racemic) [Example 53, 3-cyclopropyl-7-isopropyl-4-methoxy-4,5,6,7-tetrahydroisoxazolo[4″,3″:6′,7′]cyclohepta[1′,2′:4,5]pyrrolo[2,3-d]pyrimidin-11-amine]	34	64	485	16	102	94
CCN1Cc2c(c3c(N)ncnc3n2C(C)C)-c2noc(C3CC3)c2C1=O [Example 1, 11-amino-3-cyclopropyl-5-ethyl-7-isopropyl-6,7-dihydroisoxazolo[4,3-c]pyrimido[5′,4′:4,5]pyrrolo[3,2-e]azepin-4(5H)-one]	202	17	179	52	145	117
CC(C)n1c2c(c3c(N)ncnc31)-c1ccc(Cl)cc1C(=O)NC2 [Example 45, 12-amino-3-chloro-8-isopropyl-7,8-dihydrobenzo[c]pyrimido[5′,4′:4,5]pyrrolo[3,2-e]azepin-5(6H)-one]		344	814	194	275	557
Nc1ncnc2[nH]c3c(c12)-c1noc(C2CC2)c1C(=O)NC3 [Example 66, 11-amino-3-cyclopropyl-6,7-dihydroisoxazolo[4,3-c]pyrimido[5′,4′:4,5]pyrrolo[3,2-e]azepin-4(5H)-one 2,2,2-trifluoroacetate]	6830			1790	2180	2300
CC(C)n1c2c(c3c(N)ncnc31)-c1cc3ccccc3n1C(=O)CC2 [Example 68, 1-amino-5-isopropyl-6,7-dihydropyrimido[5″,4″:4′,5′]pyrrolo[3′,2′:3,4]azepino[1,2-a]indol-8(5H)-one]		1780	4750	386	485	1160
CC(C)n1c2c(c3c(N)ncnc31)-c1cc3ccccc3n1C(=O)NC2 [Example 69, 1-amino-5-isopropyl-6,7-dihydropyrimido[5″,4″:4′,5′]pyrrolo[2′,3′:5,6][1,3]diazepino[1,7-a]indol-8(5H)-one]		103	394	34	47	65
Cc1cc2n(n1)C(=O)NCc1c-2c2c(N)ncnc2n1C(C)C [Example 105, 12-amino-8-isopropyl-2-methyl-7,8-dihydropyrazolo[1,5-c]pyrimido[5′,4′:4,5]pyrrolo[3,2-e][1,3]diazepin-5(6H)-one 2,2,2-trifluoroacetate]		1360	15500	639	742	2580
Nc1ncnc2[nH]c3c(c12)-c1noc(C2CC2)c1C(=O)CC3 [Example 111, 11-amino-3-cyclopropyl-6,7-dihydroisoxazolo[4″,3″:6′,7′]cyclohepta[1′,2′:4,5]pyrrolo[2,3-d]pyrimidin-4(5H)-one]	6240			3440	3300	2710
COc1ccc(-n2c3c(c4c(N)ncnc42)-c2noc(C4CC4)c2C(O)CC3)cn1 (stereo not shown) [Example 114, 11-Amino-3-cyclopropyl-7-(6-methoxypyridin-3-yl)-4,5,6,7-tetrahydroisoxazolo[4″,3″:6′,7′]cyclohepta[1′,2′:4,5]pyrrolo[2,3-d]pyrimidin-4-ol 2,2,2-trifluoroacetate]	1050			357	435	282
CC(=O)N1CCC(n2c3c(c4c(N)ncnc42)-c2noc(C4CC4)c2C(O)CC3)C1 (stereo not shown) [Example 134, 1-(3-(11-amino-3-cyclopropyl-4-hydroxy-5,6-dihydroisoxazolo[4″,3″:6′,7′]cyclohepta[1′,2′:4,5]pyrrolo[2,3-d]pyrimidin-7(4H)-yl)pyrrolidin-1-yl)ethan-1-one 2,2,2-trifluoroacetate]	355			112	560	488
Nc1ncnc2c1c1c(n2[C@H]2C[C@@H](CO)C2)CCC(O)c2c-1noc2C1CC1 (stereo partly shown) [Example 136, 11-Amino-3-cyclopropyl-7-((1s,3s)-3-(hydroxymethyl)cyclobutyl)-4,5,6,7-tetrahydroisoxazolo[4″,3″:6′,7′]cyclohepta[1′,2′:4,5]pyrrolo[2,3-d]pyrimidin-4-ol 2,2,2-trifluoroacetate]	551			201	274	817
CC(C)(O)[C@H]1C[C@@H](n2c3c(c4c(N)ncnc42)-c2noc(C4CC4)c2C(O)CC3)C1 (stereo partly shown) [Example 138, 11-Amino-3-cyclopropyl-7-((1s,3s)-3-(2-hydroxypropan-2-yl)cyclobutyl)-4,5,6,7-tetrahydroisoxazolo[4″,3″:6′,7′]cyclohepta[1′,2′:4,5]pyrrolo[2,3-d]pyrimidin-4-ol 2,2,2-trifluoroacetate]	376			143	272	646
Nc1ncnc2c1c1c(n2C2CCOC2)CCC(=O)c2c-1noc2C1CC1 (stereo not shown) [Example 141, 11-Amino-3-cyclopropyl-7-(tetrahydrofuran-3-yl)-6,7-dihydroisoxazolo[4″,3″:6′,7′]cyclohepta[1′,2′:4,5]pyrrolo[2,3-d]pyrimidin-4(5H)-one]	415			139	211	405
Nc1ncnc2c1c1c(n2C2CC(F)(F)C2)CCC(O)c2c-1noc2C1CC1 (stereo not shown) [Example 148, 11-amino-3-cyclopropyl-7-(3,3-difluorocyclobutyl)-4,5,6,7-tetrahydroisoxazolo[4″,3″:6′,7′]cyclohepta[1′,2′:4,5]pyrrolo[2,3-d]pyrimidin-4-ol 2,2,2-trifluoroacetate]	216			183	154	758
